Experimental data: paper PMC12136991 (ACS chemical neuroscience, 2025)
In brackets after ≈: the same amount, converted by molar mass. Entries after “also recorded” stand apart in the source; their conditions may differ.

Columns and labels:
[1] = Multi-point microsome stability assay, rat; type: in vitro ADME; settings: male, Sprague Dawley, rat microsomal fractions, pH 7.4
[2] = Multi-point cytosol stability assay, human; type: in vitro ADME; settings: human cytosol fractions, pH 7.4
[3] = Multi-point microsome stability assay, mouse; type: in vitro ADME; settings: male, CD-1, mouse, mouse microsomal fractions, pH 7.4
[4] = Multi-point microsome stability assay, human; type: in vitro ADME; settings: both, human microsomal fractions, pH 7.4
DOR (hDOR-CHO) [5] = molecular target: T1, DOR (hDOR-CHO) (Homo sapiens, UniProt P41143); test: Competition radioligand binding assay, hDOR-CHO membranes; settings: DOR Receptor binding Ki, CHO cell membranes expressing cloned DOR
DOR (hDOR-CHO) [6] = molecular target: T1, DOR (hDOR-CHO); test: [35S]GTPγS functional assay, hDOR-CHO membranes; type: biochemical
[7] = molecular target: T2, human δ-opioid receptor (OPRD1) (Homo sapiens, UniProt P41143); test: Forskolin-induced cAMP accumulation assay, DOR agonist mode
[8] = molecular target: T3, human κ-opioid receptor (OPRK1) (Homo sapiens, UniProt P41145); test: Forskolin-induced cAMP accumulation assay, KOR antagonist mode
[9] = molecular target: human μ-opioid receptor (OPRM1) (Homo sapiens, UniProt P35372); test: cell-based
[10] = molecular target: T3, human κ-opioid receptor (OPRK1); test: Forskolin-induced cAMP accumulation assay, KOR agonist mode
[11] = Multi-point cytosol stability assay, mouse; type: in vitro ADME; settings: mouse cytosol fractions, pH 7.4
KOR (mKOR-CHO) [12] = molecular target: T4, KOR (mKOR-CHO) (Mus musculus, UniProt P33534); test: Competition radioligand binding assay, mKOR-CHO membranes
[13] = molecular target: T5, mouse mu opioid receptor (mMOR-CHO) (Mus musculus, UniProt P42866); test: [35S]GTPγS functional assay, mMOR-CHO membranes; type: biochemical
mice = test: Assay of pain-depressed locomotion in mice; type: in vivo, mouse
[14] = molecular target: T2, human δ-opioid receptor (OPRD1); test: Forskolin-induced cAMP accumulation assay, DOR antagonist mode
KOR (mKOR-CHO) [15] = molecular target: T4, KOR (mKOR-CHO); test: [35S]GTPγS functional assay, mKOR-CHO membranes; type: biochemical; settings: KOR-mediated [35S]GTPγS binding, up to 30 μM
Kinetic solubility assay = type: physicochemical; settings: kinetic from dmso stock
[16] = Multi-point cytosol stability assay, rat; type: in vitro ADME; settings: rat cytosol fractions, pH 7.4
[17] = molecular target: T5, mouse mu opioid receptor (mMOR-CHO); test: Competition radioligand binding assay, [3H]naloxone, mMOR-CHO membranes
[18] = SC 30 min before 15 min session, significant increase, 12 mice per dose

C=C[C@H]1[C@H]2CCC[C@]1(c1cccc(C(N)=O)c1)CCN2CCc1ccccc1 [compound 5, 3-((1R,5S,9R)-2-Phenethyl-9-vinyl-2-azabicyclo[3.3.1]nonan-5-yl)benzamide]
half-life at 1 μM [1]: 3.2 min | half-life at 1 μM [2]: > 120 min | half-life at 1 μM [3]: 16.7 min | half-life at 1 μM [4]: 40.4 min | Ki (DOR (hDOR-CHO) [5]): 237 nM | EC50 (DOR (hDOR-CHO) [6]): 1460 ± 594 nM | Emax (DOR (hDOR-CHO) [6]; read-out: DOR GTPγS % Emax of (DAMGO)): -6.98 ± 1.21% | EC50 [7]: 6.01 ± 4.97 nM | Emax ([7]; read-out: DOR Agonist %Emax ± SEM): 25.2% | IC50 [8]: > 10000 nM | EC50 [9]: 5.28 nM | Emax ([9]; OPRM1, read-out: MOR Agonist %Emax ± SEM): 75.1% | EC50 [10]: > 10000 nM | half-life at 1 μM [11]: > 120 min | Ki (KOR (mKOR-CHO) [12]): 48.7 ± 7.06 nM | EC50 [13]: 23.3 ± 6.45 nM | Emax ([13]; read-out: GTPγS % Emax of (DAMGO), MOR, % of maximal DAMGO stimulation): 15.4 ± 1.8% | Crosses, drug administered alone: dose different from Vehicle (mice; [18]): 18 mg/kg | Movement, drug administered alone: doses different from Vehicle (mice; [18]): 10 to 18 mg/kg | antinociceptive attenuation of IP acid-induced depression of Crosses: dose different from Vehicle+IP acid (mice; SC pretreatment to IP 0.56% lactic acid): 18 mg/kg | IC50 [14]: 498 ± 208 nM | DOR Antagonist %Imax ± SEM ([14]; versus EC50 of SNC80, normalized to naltrexone): 117.6 ± 8.0% | KOR GTPγS % Emax of (DAMGO) (KOR (mKOR-CHO) [15]): did not stimulate; also recorded: No Stim | solubility kinetic (Kinetic solubility assay): 5.1 µg/mL (≈ 13.6 µM) | half-life at 1 μM [16]: > 120 min | Ki [17]: 1.24 ± 0.17 nM
